Reference: patent publication US20250236789A1, “SECOND NEAR-INFRARED ORGANIC FLUORESCENT PROBE, PREPARATION METHOD AND USE THEREOF” (INNER MONGOLIA UNIVERSITY, priority 2024, published 2025)

Columns and labels:
[1] = Emission spectrum test in aqueous solution under excitation of white light; format: physicochemical; conditions: 10 μmol·L^−1, white light excitation
Experimental: (3) Emission spectrum test of fluorescent probe coated nanoparticles: The emission spectra of HY6CT-NPs, FY6CT-NPs and CY6CT-NPs in aqueous solution were tested with steady-state transient fluorescence spectrometer, at a test concentration of 10 μmol·L^−1.

[2] = NIR-II fluorescence imaging of aqueous solutions in PE tubes under excitation of white light; format: physicochemical; conditions: aqueous solution, 10 μmol·L^−1
Description: Using NIR-II small animal imager, the PE tubes filled with the same concentration of nano-imaging probes were imaged at a test concentration of 10 μmol·L^−1.

SMILES: CC1(C)C(/C=C/C=C/C=C/C=C2\N(CCCCS(=O)(=O)[O-])c3ccc4ccccc4c3C2(C)C)=[N+](CCCCS(=O)(=O)[O-])c2ccc3ccccc3c21.[Na+] [ICG]
- emission spectrum under white light (in words) [1]: can hardly be detected
- NIR-II fluorescence signal under excitation of white light (in words) [2]: could not detect fluorescence signals
